From patent US7888393B2, “Transdermal compositions” (Microdermis Corporation, priority 2002, dated 2011)

Columns and labels:
[1] = pH of quaternary compounds, fatty acids and their reaction products in water (calibrated pH meter); assay type: physicochemical; details: for pH of product compound (reaction of quaternary compound with fatty acid): molar ratio DDAC to fatty acid 1:1, 70-75 °C, after 10 minutes
Method: Example 2 was repeated employing the fatty acids; Conjugated Linoleic Acid (CLA); eicosapentaenoic acid (EPA); and gamma linolenic acid (GLA), were all dissolved in water and the pH of the resulting solutions were measured with a calibrated pH meter.
Three solutions of DDAC (188.2 g) in distilled water (2,000 g) were contacted with masses of CLA, EPA and GLA, such that the molar ratio of DDAC to each of the aforementioned fatty acids was 1:1 at a temperature of 70° C. to 75° C. and after 10 minutes the pH of the reaction products of each of these products was measured.
Merquat 550 is a trademark owned by Calgon, Inc. its manufacturer, for a proprietary cationic polymer having a repeating unit molecular weight of 680 and an overall molecular weight of about 10,000. The pH of these first transdermal compositions were measured. […] Ten minutes after acid addition, the pH of the product composition were measured.

[2] = tested on: open wounds; test: Seventh transdermal composition on open wounds of patients (healing, pain); assay type: in vivo
Description: As one skilled in the art can well appreciate there are endless numbers of combinations that can be made to create the desired skin effects. For example, when the quaternary ammonium salt, such as […] (DDAC), and the like, is present in a neutral pH in the first transdermal composition of the present invention described hereinabove, the formic acid from the bug bite is more effectively and more rapidly neutralized. On the other hand, when the quaternary ammonium salt, e.g., DDAC, is present in the seventh transdermal composition of the present invention, the healing rate on open wounds improves. However, when the quaternary ammonium salt, e.g., DDAC, is not substantially converted to the first reaction product, some of the patients, approximately 25% thereof, feel pain.

[3] = Stability of benzethonium chloride added to the transdermal mixtures; assay type: physicochemical
Method: When benzethonium chloride is added in therapeutically effective amounts to the mixtures described herein, it is stable if added at ambient temperature at a pH greater than 6. On the other hand, it is not stable if added at temperatures below the Freezing Zone and above ambient temperature at a pH of about 7.5 to about 8.

[4] = DDAC split between first reaction product (80%) and unreacted DDAC (20%)

CCCCCCCCCCCCCCCCCC[N+](C)(C)CCCCCCCCCCCCCCCCCC.[Cl-] [DDAC, dimethyl distearyl ammonium chloride]
pH of quaternary compound in water ([1]; DDAC 188.2 g in distilled water 2,000 g): 5.38 | Patients who feel pain ([2]; DDAC not substantially converted to the first reaction product): approximately 25% | Healing [2, 4]: rapid healing | Pain [2, 4]: did not feel pain

CC/C=C\C/C=C\C/C=C\CCCCCCCC(=O)[O-].CCCCCCCCCCCCCCCCCC[N+](C)(C)CCCCCCCCCCCCCCCCCC [DDAL, Dimethyl Distearyl Ammonium Linolenate]
pH of product compound (reaction of quaternary compound with fatty acid) [1]: 2.28

CC(C)(C)CC(C)(C)c1ccc(OCCOCC[N+](C)(C)Cc2ccccc2)cc1 [benzethonium chloride]
Stability of benzethonium chloride in the mixture ([3]; added above the Freezing Zone, tip speed greater than Critical Shear Rate, pH about 7.5 to about 8): stable | Stability of benzethonium chloride in the mixture ([3]; added at ambient temperature at pH greater than 6): stable | Stability of benzethonium chloride in the mixture ([3]; added below the Freezing Zone and above ambient temperature at pH about 7.5 to about 8): not stable

Conjugated Linoleic Acid [CLA]
pH of fatty acid dissolved in water ([1]; fatty acid alone in water): (4.00)

benzalkonium chloride [BAC]
pH of Quat and Stearic Acid ([1]; 70-75 °C, stearic acid 40 g, ten minutes after acid addition): 2.40 | pH of quaternary compound ([1]; mixed with distilled water (2,000 g), before heating): 7.83

dimethyl distearyl ammonium stearate [DDAS]
pH of product compound (reaction of quaternary compound with fatty acid) [1]: 2.38
